We go through eleven molecules from patent publication US20260364215A1, “Radiopharmaceutical Compositions Targeting Ephrin Type-A Receptor 2 and Uses Thereof” (PeptiDream Inc., priority 2022, published 2026).

Each structure is given as a SMILES string. Numbered stars: 1 amine (or outer) side, 2 acyl side, 3 side chain; on linkers, the order of the positions; unused ones are H or OH. Bridge positions count the residues as written; N and C are the ends. Square brackets hold non-standard residues; d marks the D form. Side chains are listed from the residue outwards. Peptide text beside a SMILES is read from it. * marks the point of attachment. DOTA(Lu) = O=C1CN2CCN3CCN(CC(=O)*)CCN(CC2)CC(=O)[O][Lu]([O]1)[O]C(=O)C3; NH(1-deoxy-D-glucityl) = OC[C@@H](O)[C@@H](O)[C@H](O)[C@@H](O)CN*; DOTA = O=C(O)CN1CCN(CC(=O)O)CCN(CC(=O)*)CCN(CC(=O)O)CC1; Trp(1-Me,7-Cl) = Cn1cc(C[C@H](N)C(=O)O)c2cccc(Cl)c21; dPhe(3-CONH2) = NC(=O)c1cccc(C[C@@H](N)C(=O)O)c1; NMePhe(3-CN) = CN[C@@H](Cc1cccc(C#N)c1)C(=O)O; Piperazinyl(4-CH2COOH) = O=C(O)CN1CCN(*)CC1; Trp(1-Me) = Cn1cc(C[C@H](N)C(=O)O)c2ccccc21; NMe3Pal = CN[C@@H](Cc1cccnc1)C(=O)O; NMeF = CN[C@@H](Cc1ccccc1)C(=O)O; hCit = NC(=O)NCCCC[C@H](N)C(=O)O; Gly(cBu) = N[C@H](C(=O)O)C1CCC1; Aad = N[C@@H](CCCC(=O)O)C(=O)O; Cit = NC(=O)NCCC[C@H](N)C(=O)O; NMeN = CN[C@@H](CC(N)=O)C(=O)O; CO = O=C([*:1])[*:2]

For the first experiment, the target named is T1, Recombinant Human EphA2 Fc Protein (Homo sapiens, UniProt P29317).
T1 construct: purchased Elabscience
T1 sequence (P29317 24-534 limits assumed): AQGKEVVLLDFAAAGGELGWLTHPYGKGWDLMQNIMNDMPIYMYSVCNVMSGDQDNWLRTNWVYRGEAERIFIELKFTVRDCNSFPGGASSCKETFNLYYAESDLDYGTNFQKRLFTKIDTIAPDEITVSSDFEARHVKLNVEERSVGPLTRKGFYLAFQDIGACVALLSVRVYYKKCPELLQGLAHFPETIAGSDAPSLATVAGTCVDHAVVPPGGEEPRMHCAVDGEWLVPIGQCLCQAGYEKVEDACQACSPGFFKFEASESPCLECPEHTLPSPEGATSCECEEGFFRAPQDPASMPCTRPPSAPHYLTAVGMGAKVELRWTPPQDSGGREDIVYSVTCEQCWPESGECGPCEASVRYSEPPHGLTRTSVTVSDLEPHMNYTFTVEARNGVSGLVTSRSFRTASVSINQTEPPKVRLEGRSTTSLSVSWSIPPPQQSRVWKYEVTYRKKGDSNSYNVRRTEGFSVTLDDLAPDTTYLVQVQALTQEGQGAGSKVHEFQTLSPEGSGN
Put plainly: Interaction analysis (kinetics, KD) of peptides and conjugates against EphA2 by SPR, Biacore T200, single-cycle kinetics (Examples B15 and B22). Format: binding.
Conditions: not given
How it is done: Example B15. Interaction Analysis by SPR was Performed Using Biacore (Cytiva)
SPR assay was performed using Biacore T200 (Cytiva).
The HBS-P+ buffer (10 mM HEPES (pH7.4), 150 mM NaCl, 0.05% (v/v) Surfactant P20) containing 1% DMSO was used as running buffer. Recombinant Human EphA2 Fc Protein (Fc tag, Elabscience) was captured by Human Antibody Capture kit (Cytiva). Peptide samples in DMSO were diluted with running buffer, and prepared five serial dilutions. Using these serial dilutions, kinetics of peptides against EphA2 was measured at a flow rate of […] at 25 °C. The method adopted for sample measurement was a single-cycle kinetics method. The analysis was conducted using the evaluation software 3.0 provided with Biacore T200. Kinetics fitting was done on the difference data obtained by subtracting the baseline data from sample measurement data. KD values were calculated based on the association rate constant (ka) and dissociation rate constant (kd).
Example B22: Interaction Analysis of Conjugates by SPR was Performed Using Biacore (Cytiva)
SPR assay was performed using Biacore T200 (Cytiva) according to Example B15.
On to `C[C@@H](O)[C@@H]1NC(=O)[C@H](Cc2cn(C)c3ccccc23)NC(=O)[C@H](CCC(=O)NC[C@H](O)[C@@H](O)[C@H](O)[C@H](O)CO)NC(=O)[C@H](Cc2cn(C)c3c(Cl)cccc23)NC(=O)[C@H](CC(N)=O)N(C)C(=O)[C@H](CCCC(N)=O)NC(=O)[C@H](C2CCC2)NC(=O)[C@H](CC(N)=O)NC(=O)[C@H](Cc2cccc(C#N)c2)N(C)C(=O)[C@@H](Cc2cccc(C(N)=O)c2)NC(=O)CSC[C@@H](C(=O)N[C@H](CCCCNC(=O)CN2CCN3CCN4CCN(CC2)CC(=O)[O][Lu]([O]C(=O)C3)[O]C(=O)C4)C(N)=O)NC(=O)[C@H](CCCC(N)=O)NC1=O` [PDC_EphA2-00022615-C302] ({CH2CO}-[dPhe(3-CONH2)][NMePhe(3-CN)]N[Gly(cBu)][Aad](NH2)[NMeN][Trp(1-Me,7-Cl)]E(NH(1-deoxy-D-glucityl))[Trp(1-Me)]T[Aad](NH2)C[dK](DOTA(Lu))-NH2; thioether N-12), for which the Kd (in general, the concentration at which binding is half-saturated) is less than 1 nM. On the same count and under the same terms, to `CC(C)C[C@@H]1NC(=O)[C@H](CC(N)=O)NC(=O)[C@H](Cc2cccnc2)N(C)C(=O)[C@@H](Cc2cccc(C(N)=O)c2)NC(=O)CSC[C@@H](C(=O)N[C@H](CCCCNC(=O)CN2CCN3CCN4CCN(CC2)CC(=O)[O][Lu]([O]C(=O)C3)[O]C(=O)C4)C(N)=O)NC(=O)[C@H](CC(N)=O)NC(=O)[C@H]([C@@H](C)O)NC(=O)[C@H](Cc2cn(C)c3ccccc23)NC(=O)[C@H](CCCNC(N)=O)NC(=O)[C@H](Cc2cn(C)c3c(Cl)cccc23)NC(=O)[C@H](CC(N)=O)N(C)C(=O)[C@H](CC(N)=O)NC1=O` [PDC_EphA2-00026426-C302] ({CH2CO}-[dPhe(3-CONH2)][NMe3Pal]NLN[NMeN][Trp(1-Me,7-Cl)][Cit][Trp(1-Me)]TNC[dK](DOTA(Lu))-NH2; thioether N-12) belongs less than 1 nM; to `CC(C)C[C@@H]1NC(=O)[C@H](CC(N)=O)NC(=O)[C@H](Cc2cccnc2)N(C)C(=O)[C@@H](Cc2cccc(C(N)=O)c2)NC(=O)CSC[C@@H](C(=O)N[C@@H](CCCCNC(=O)CN2CCN3CCN4CCN(CC2)CC(=O)[O][Lu]([O]C(=O)C3)[O]C(=O)C4)C(N)=O)NC(=O)[C@H](Cc2cn(C)c3ccccc23)NC(=O)[C@H](CCCCNC(N)=O)NC(=O)[C@H](Cc2cn(C)c3c(Cl)cccc23)NC(=O)[C@H](Cc2ccccc2)N(C)C(=O)[C@H](CO)NC1=O` [PDC_EphA2-00026600-C301] ({CH2CO}-[dPhe(3-CONH2)][NMe3Pal]NLS[NMeF][Trp(1-Me,7-Cl)][hCit][Trp(1-Me)]CK(DOTA(Lu))-NH2; thioether N-10), less than 1 nM. The same measure, in the same setting: then `CC(C)C[C@@H]1NC(=O)[C@H](CC(N)=O)NC(=O)[C@H](Cc2cccnc2)N(C)C(=O)[C@@H](Cc2cccc(C(N)=O)c2)NC(=O)CSC[C@@H](C(=O)N[C@@H](CCCCNC(=O)CN2CCN3CCN4CCN(CC2)CC(=O)[O][Lu]([O]C(=O)C3)[O]C(=O)C4)C(N)=O)NC(=O)[C@H](Cc2cn(C)c3ccccc23)NC(=O)[C@H](CCCCNC(N)=O)NC(=O)[C@H](Cc2cn(C)c3c(Cl)cccc23)NC(=O)[C@H](Cc2cccnc2)N(C)C(=O)[C@H](CO)NC1=O` [PDC_EphA2-00026601-C301] ({CH2CO}-[dPhe(3-CONH2)][NMe3Pal]NLS[NMe3Pal][Trp(1-Me,7-Cl)][hCit][Trp(1-Me)]CK(DOTA(Lu))-NH2; thioether N-10), with less than 1 nM.

Consider `CN1C(=O)[C@H](CO)NC(=O)[C@H](C2CCC2)NC(=O)[C@H](CC(N)=O)NC(=O)[C@H](Cc2cccnc2)N(C)C(=O)[C@@H](Cc2cccc(C(N)=O)c2)NC(=O)CSC[C@@H](C(=O)N[C@@H](CCCCNC(=O)CN2CCN3CCN4CCN(CC2)CC(=O)[O][Lu]([O]C(=O)C3)[O]C(=O)C4)C(N)=O)NC(=O)[C@H](Cc2cn(C)c3ccccc23)NC(=O)[C@H](CCCCNC(N)=O)NC(=O)[C@H](Cc2cn(C)c3c(Cl)cccc23)NC(=O)[C@@H]1Cc1cccnc1` [PDC_EphA2-00026602-C301] ({CH2CO}-[dPhe(3-CONH2)][NMe3Pal]N[Gly(cBu)]S[NMe3Pal][Trp(1-Me,7-Cl)][hCit][Trp(1-Me)]CK(DOTA(Lu))-NH2; thioether N-10), for which the dissociation constant (Kd) was less than 1 nM.

Take `CN1C(=O)[C@H](CCC(=O)NC[C@H](O)[C@@H](O)[C@H](O)[C@H](O)CO)NC(=O)[C@H](C2CCC2)NC(=O)[C@H](CC(N)=O)NC(=O)[C@H](Cc2cccnc2)N(C)C(=O)[C@@H](Cc2cccc(C(N)=O)c2)NC(=O)CSC[C@@H](C(=O)N[C@@H](CCCCNC(=O)CN2CCN3CCN4CCN(CC2)CC(=O)[O][Lu]([O]C(=O)C3)[O]C(=O)C4)C(N)=O)NC(=O)[C@H](Cc2cn(C)c3ccccc23)NC(=O)[C@H](CCC(=O)NC[C@H](O)[C@@H](O)[C@H](O)[C@H](O)CO)NC(=O)[C@H](Cc2cn(C)c3c(Cl)cccc23)NC(=O)[C@@H]1Cc1cccnc1` [PDC_EphA2-00026604-C301] ({CH2CO}-[dPhe(3-CONH2)][NMe3Pal]N[Gly(cBu)]E(NH(1-deoxy-D-glucityl))[NMe3Pal][Trp(1-Me,7-Cl)]E(NH(1-deoxy-D-glucityl))[Trp(1-Me)]CK(DOTA(Lu))-NH2; thioether N-10): the Kd was less than 1 nM.

The experiment is the same for the next values; noted with them: conjugates, Biacore T200 according to Example B15, Table B16; read-out: SPR Kd.
Regarding `CC(C)C[C@@H]1NC(=O)[C@H](CC(N)=O)NC(=O)[C@H](Cc2cccnc2)N(C)C(=O)[C@@H](Cc2cccc(C(N)=O)c2)NC(=O)CSC[C@@H](C(=O)N[C@H](CCCCNC(=O)CN2CCN(CC(=O)O)CCN(CC(=O)O)CCN(CC(=O)O)CC2)C(N)=O)NC(=O)[C@H](CC(N)=O)NC(=O)[C@H]([C@@H](C)O)NC(=O)[C@H](Cc2cn(C)c3ccccc23)NC(=O)[C@H](CCC(=O)NC[C@H](O)[C@@H](O)[C@H](O)[C@H](O)CO)NC(=O)[C@H](Cc2cn(C)c3c(Cl)cccc23)NC(=O)[C@H](Cc2cccnc2)N(C)C(=O)[C@H](CC(N)=O)NC1=O.[Lu+3]` [PDC_EphA2-00026424-C302] ({CH2CO}-[dPhe(3-CONH2)][NMe3Pal]NLN[NMe3Pal][Trp(1-Me,7-Cl)]E(NH(1-deoxy-D-glucityl))[Trp(1-Me)]TNC[dK](DOTA)-NH2; thioether N-12), the Kd is less than 1 nM. On the same count and under the same terms, then `CC(C)C[C@@H]1NC(=O)[C@H](CC(N)=O)NC(=O)[C@H](Cc2cccnc2)N(C)C(=O)[C@@H](Cc2cccc(C(N)=O)c2)NC(=O)CSC[C@@H](C(=O)N[C@H](CCCCNC(=O)CN2CCN(CC(=O)O)CCN(CC(=O)O)CCN(CC(=O)O)CC2)C(N)=O)NC(=O)[C@H](CC(N)=O)NC(=O)[C@H]([C@@H](C)O)NC(=O)[C@H](Cc2cn(C)c3ccccc23)NC(=O)[C@H](CCC(=O)NC[C@H](O)[C@@H](O)[C@H](O)[C@H](O)CO)NC(=O)[C@H](Cc2cn(C)c3c(Cl)cccc23)NC(=O)[C@H](CC(N)=O)N(C)C(=O)[C@H](CC(N)=O)NC1=O.[Lu+3]` [PDC_EphA2-00026425-C302] ({CH2CO}-[dPhe(3-CONH2)][NMe3Pal]NLN[NMeN][Trp(1-Me,7-Cl)]E(NH(1-deoxy-D-glucityl))[Trp(1-Me)]TNC[dK](DOTA)-NH2; thioether N-12), with less than 1 nM; and `CN1C(=O)[C@H](CCC(=O)NC[C@H](O)[C@@H](O)[C@H](O)[C@H](O)CO)NC(=O)[C@H](C2CCC2)NC(=O)[C@H](CC(N)=O)NC(=O)[C@H](Cc2cccnc2)N(C)C(=O)[C@@H](Cc2cccc(C(N)=O)c2)NC(=O)CSC[C@@H](C(=O)N[C@@H](CCCCNC(=O)CN2CCN(CC(=O)O)CCN(CC(=O)O)CCN(CC(=O)O)CC2)C(N)=O)NC(=O)[C@H](Cc2cn(C)c3ccccc23)NC(=O)[C@H](CCCCNC(=O)N2CCN(CC(=O)O)CC2)NC(=O)[C@H](Cc2cn(C)c3c(Cl)cccc23)NC(=O)[C@@H]1Cc1cccnc1.[Lu+3]` [PDC_EphA2-00026603-C301] ({CH2CO}-[dPhe(3-CONH2)][NMe3Pal]N[Gly(cBu)]E(NH(1-deoxy-D-glucityl))[NMe3Pal][Trp(1-Me,7-Cl)]K([CO-Piperazinyl(4-CH2COOH)])[Trp(1-Me)]CK(DOTA)-NH2; thioether N-10), with less than 1 nM.

The experiment is the same for the next values; noted with them: peptides, Biacore T200, 25 °C, Table B12; read-out: SPR Kd.
For `CC(C)C[C@@H]1NC(=O)[C@H](CC(N)=O)NC(=O)[C@H](Cc2cccnc2)N(C)C(=O)[C@@H](Cc2cccc(C(N)=O)c2)NC(=O)CSC[C@@H](C(N)=O)NC(=O)[C@H](CC(N)=O)NC(=O)[C@H]([C@@H](C)O)NC(=O)[C@H](Cc2cn(C)c3ccccc23)NC(=O)[C@H](CCC(=O)NC[C@H](O)[C@@H](O)[C@H](O)[C@H](O)CO)NC(=O)[C@H](Cc2cn(C)c3c(Cl)cccc23)NC(=O)[C@H](Cc2cccnc2)N(C)C(=O)[C@H](CC(N)=O)NC1=O` [PDC_EphA2-00026424] ({CH2CO}-[dPhe(3-CONH2)][NMe3Pal]NLN[NMe3Pal][Trp(1-Me,7-Cl)]E(NH(1-deoxy-D-glucityl))[Trp(1-Me)]TNC-NH2; thioether N-12), the Kd is less than 1 nM.

Turning to `CC(C)C[C@@H]1NC(=O)[C@H](CC(N)=O)NC(=O)[C@H](Cc2cccnc2)N(C)C(=O)[C@@H](Cc2cccc(C(N)=O)c2)NC(=O)CSC[C@@H](C(N)=O)NC(=O)[C@H](CC(N)=O)NC(=O)[C@H]([C@@H](C)O)NC(=O)[C@H](Cc2cn(C)c3ccccc23)NC(=O)[C@H](CCCNC(N)=O)NC(=O)[C@H](Cc2cn(C)c3c(Cl)cccc23)NC(=O)[C@H](CC(N)=O)N(C)C(=O)[C@H](CC(N)=O)NC1=O` [PDC_EphA2-00026426] ({CH2CO}-[dPhe(3-CONH2)][NMe3Pal]NLN[NMeN][Trp(1-Me,7-Cl)][Cit][Trp(1-Me)]TNC-NH2; thioether N-12), the Kd was less than 1 nM.
